This note sets out measurements from US8809002B2, “MUC1, caspase-8, and DED-containing proteins” (Dana-Farber Cancer Institute, Inc., priority 2008, dated 2014).

Ends that are not written are not given here.

Series [1] deals with MUC1-C. Put plainly: Silencing of MUC1 expression in BC-1 cells, immunoblot. It counts as cell-based, human. Conditions: lentivirus, compared to control siRNA (FIG. 1A). The source says:
FIG. 1A: BC-1 cells were infected with lentiviruses expressing the CsiRNA, MUC1siRNA#1 or MUC1siRNA#2. Lysates from the indicated cell populations were immunoblotted with anti-MUC1-C and anti-β-actin antibodies as indicated to the right of the photographs. The molecular weights of each of the proteins (in kilodaltons (kDa)) are indicated to the left of each of the photographs.
The BLOCK-iT Target Screening System (Invitrogen, Carlsbad, Calif.) was used to generate two MUC1-specific siRNA molecules (Sequence #1: […] (SEQ ID NO:31); or Sequence #2: […] (SEQ ID NO:32)) and a control siRNA sequence ([…]; SEQ ID NO:33). The RNAi cassettes (nucleic acids encoding the siRNA molecules) were inserted into pLenti4/BLOCK-iT-DEST by LR recombination for the generation of lentiviral vectors. BC-1 cells were infected with the lentiviruses at a multiplicity of infection of 5 in the presence of 8 μg/ml polybrene. Cell clones were selected in methylcellulose semi-solid medium containing 200 μg/ml Zeocin and assayed for downregulation of MUC1 by immunoblotting. […]
Cells were lysed by sonication in the presence of 10 mM Tris-HCl, pH 7.5, 150 mM NaCl, 5 mM EDTA, 0.5% NP-40, 100 μg/ml phenylmethylsulphonyl fluoride (PMSF), and standard protease inhibitors. […] Reactivity was detected with horseradish peroxidase-conjugated secondary antibodies and chemiluminescence (GE Healthcare Biosciences, Piscataway, N.J.).

The test system of series [2] is BC-1 cells. Kind of series: FasL-induced apoptosis of BC-1 cells (sub-G1 DNA content). Conditions: 50 ng/ml FasL, 24 hours (FIG. 1C, 1D). It counts as cell-based, human. The procedure:
FIG. 1C: The indicated BC-1 cell populations were treated with 50 ng/ml FasL for 24 hours and then analyzed by fluorescence assisted cell sorting (FACS) to determine the sub-G1 DNA content in the cells.
FIG. 1D: The results obtained with the indicated BC-1 cell populations left untreated (open bars) or treated with FasL (solid bars) are expressed as the percentage apoptosis (mean+SD for three experiments).
Cells were fixed in 70% ethanol and incubated in PBS containing 50 μg/ml RNase and 2.5 μg/ml propidium iodide. DNA content was analyzed by flow cytometry. The percentage of cells with sub-G1 DNA was determined by the MODFIT LT Program (Verity Software, Topsham, Me.). Cells were also suspended in Annexin-V-FLOUS containing propidium iodide (Roche) and analyzed by flow cytometry.

The target of series [3] is T1, caspase-8-p18 (Homo sapiens, UniProt Q14790).
T1 construct: His; made in house; host or cells: E. coli BL21 DE3 is stated for the GST proteins; no host is printed for the His proteins
Kind of series: In vitro binding assay: GST-MUC1-CD(1-20) with His-caspase-8-p18 in the presence of MUC1-CD(1-20) peptide. Conditions: increasing amounts of peptide; GST pull-down, immunoblot (FIG. 9D, lower). The method, then:
FIG. 9D: GST or the indicated GST-MUC1-CD proteins were incubated with His-caspase-8-p18 (upper panel). The adsorbates were immunoblotted with anti-His and anti-GST antibodies. GST or GST-MUC1-CD(1-20) was incubated with His-caspase-8-p18 in the presence of increasing amounts of MUC1-CD(1-20) peptide (lower panel). The adsorbates were immunoblotted with anti-caspase-8 antibody as indicated to the right of the photographs. Input of the GST proteins was assessed by Coomassie blue staining.
(§1) Purified GST, GST-MUC1-CD(1-72), GST-MUC1-CD deletion mutants, GST-caspase-8, GST-caspase-8 deletion mutants, GST-FADD, GST-N-FADD and GST-C-FADD protein (36) were purified from E. coli (BL21 DE3) and immobilized on glutathione-agarose beads (Pierce). His-MUC1-CD(1-72) and His-caspase-8 deletion mutant proteins were purified on Ni-NTA beads (Qiagen, Valencia, Calif.). GST and GST fusion proteins bound to glutathione beads were incubated with purified soluble proteins for 2 hours at 4° C., and washed. Adsorbates bound to the beads were analyzed by solubilizing the protein/bead mixture in Laemli buffer following by sodium dodecyl sulfate polyacrylamide gel electrophoresis (SDS-PAGE) and immunoblotting. For competition studies, GST-caspase-8 DED protein bound to FADD was incubated with increasing amounts of MUC1-CD protein. Precipitated proteins were subjected to SDS-PAGE and immunoblot analysis. […]
(In general: In western blotting, separated proteins are transferred to a membrane and probed.)

The subject of series [4] is caspase-8. Kind of series: In vitro binding assay (GST pull-down) of MUC1-CD proteins with caspase-8. Set-up: species or system human. Conditions: immunoblot (FIG. 9A, 9D). The procedure: FIG. 9A depicts the amino acid sequence for human MUC1-CD (SEQ ID NO:2). Phosphorylation sites and regions for β-catenin, IKKβ and IKKγ binding are indicated by brackets of arrows (upper panel). GST (glutathione-S-transferase) or GST-caspase-8 protein were incubated with purified His-MUC1-CD. The adsorbates and the input protein were immunoblotted with anti-His and anti-GST antibodies as indicated to the right of the photographs. The molecular weights of each of the proteins (in kilodaltons (kDa)) are indicated to the left of each of the photographs.
FIG. 9D: GST or the indicated GST-MUC1-CD proteins were incubated with His-caspase-8-p18 (upper panel). The adsorbates were immunoblotted with anti-His and anti-GST antibodies. GST or GST-MUC1-CD(1-20) was incubated with His-caspase-8-p18 in the presence of increasing amounts of MUC1-CD(1-20) peptide (lower panel). […] Input of the GST proteins was assessed by Coomassie blue staining.
Purified GST, GST-MUC1-CD(1-72), GST-MUC1-CD deletion mutants, GST-caspase-8, GST-caspase-8 deletion mutants, GST-FADD, GST-N-FADD and GST-C-FADD protein (36) were purified from E. coli (BL21 DE3) and immobilized on glutathione-agarose beads (Pierce). […] Adsorbates bound to the beads were analyzed by solubilizing the protein/bead mixture in Laemli buffer following by sodium dodecyl sulfate polyacrylamide gel electrophoresis (SDS-PAGE) and immunoblotting. […]

For series [5], the target named is T2, FADD (Homo sapiens, UniProt Q13158).
T2 sequence (Q13158 1-208): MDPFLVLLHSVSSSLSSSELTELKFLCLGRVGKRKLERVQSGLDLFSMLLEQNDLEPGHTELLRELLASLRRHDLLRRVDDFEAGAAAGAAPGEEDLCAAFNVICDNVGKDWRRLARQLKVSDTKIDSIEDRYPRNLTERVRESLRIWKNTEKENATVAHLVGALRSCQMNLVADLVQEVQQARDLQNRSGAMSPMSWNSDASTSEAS
Kind of series: In vitro binding assay (GST pull-down) of GST-MUC1-CD proteins with purified FADD. Conditions: immunoblot (FIG. 12A). The method, then: FIG. 12A: GST and the indicated GST-MUC1-CD proteins were incubated with purified FADD. The adsorbates and input FADD were immunoblotted with anti-FADD antibody. The GST and GSTMUC1-CD proteins were stained with Coomassie blue.
Purified GST, GST-MUC1-CD(1-72), GST-MUC1-CD deletion mutants, GST-caspase-8, GST-caspase-8 deletion mutants, GST-FADD, GST-N-FADD and GST-C-FADD protein (36) were purified from E. coli (BL21 DE3) and immobilized on glutathione-agarose beads (Pierce). His-MUC1-CD(1-72) and His-caspase-8 deletion mutant proteins were purified on Ni-NTA beads (Qiagen, Valencia, Calif.). GST and GST fusion proteins bound to glutathione beads were incubated with purified soluble proteins for 2 hours at 4° C., and washed. Adsorbates bound to the beads were analyzed by solubilizing the protein/bead mixture in Laemli buffer following by sodium dodecyl sulfate polyacrylamide gel electrophoresis (SDS-PAGE) and immunoblotting. For competition studies, GST-caspase-8 DED protein bound to FADD was incubated with increasing amounts of MUC1-CD protein. Precipitated proteins were subjected to SDS-PAGE and immunoblot analysis. In certain studies, binding was performed in the presence of a synthetic peptide ([…]) (SEQ ID NO:3) derived from amino acids 1-20 from MUC1-CD (Molecular Biology Core Facility, Dana-Farber Cancer Institute).

The target of series [6] is T2, FADD. Kind of series: In vitro competition: GST-caspase-8(1-183) binding to FADD with increasing amounts of MUC1-CD. Conditions: increasing amounts of MUC1-CD protein (FIG. 12C). The procedure:
FIG. 12C: GST or GST-caspase-8(1-183) containing the DEDs was incubated with FADD in the absence or presence of increasing amounts of purified MUC1-CD. The adsorbates and input FADD were immunoblotted with anti-FADD antibody. Input of GST and GST-caspase-8(1-183) was determined by Coomassie blue staining. Input of MUC1-CD was determined by immunoblotting.
as §1

In series [7] the target is T3, MUC1-CD (Homo sapiens, UniProt P15941).
T3 construct: Purified GST, GST-MUC1-CD(1-72), GST-MUC1-CD deletion mutants; made in house; host or cells: E. coli BL21 DE3
T3 sequence (P15941 1184-1255): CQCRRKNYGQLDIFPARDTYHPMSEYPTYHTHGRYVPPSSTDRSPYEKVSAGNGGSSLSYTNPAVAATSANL
Kind of series: In vitro binding assay of His-caspase-8-p18 fragments with GST-MUC1-CD. Conditions: GST-MUC1-CD on glutathione beads (FIG. 9C). The procedure: FIG. 9C is a schematic of his-tagged caspasc-8 p18 fragment depicting the A, B, C and AB subfragments (upper panel). The shaded region denotes position of the His tag. GST or GST-MUC1-CD was incubated with the indicated His-caspase-8 proteins. The adsorbates and input proteins ( 1/10th that used in the reactions) were immunoblotted with anti-His and anti-GST antibodies as indicated to the right of the photographs.
as §1

Sequence of caspase-8 (Q14790 184-384 limits assumed): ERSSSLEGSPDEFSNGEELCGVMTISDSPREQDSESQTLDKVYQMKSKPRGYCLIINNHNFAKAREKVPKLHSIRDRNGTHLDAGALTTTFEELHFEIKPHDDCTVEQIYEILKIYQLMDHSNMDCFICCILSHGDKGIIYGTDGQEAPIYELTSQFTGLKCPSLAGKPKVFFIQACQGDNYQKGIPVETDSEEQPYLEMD
T1 sequence (Q14790 184-384): as the sequence (Q14790 184-384 limits assumed) above

Turning to “AAGGTACCATCAATGTCCACG (expressed or natural sequence) [MUC1siRNA#1]”, the MUC1-C expression result in series [1] is “stably downregulated”. The FasL-induced apoptosis result in series [2] is “sensitized”.

For “AAGTTCAGTGCCCAGCTCTAC (expressed or natural sequence) [MUC1siRNA#2]”, in series [1], the MUC1-C expression entry was “similar”. Also, the FasL-induced apoptosis entry in series [2] is recorded as “confirmed”.

In the case of “CQCRRKNYGQLDIFPARDTY (listed as Homo sapiens) [MUC1-CD(1-20) peptide, synthetic peptide derived from amino acids 1-20 from MUC1-CD]”, the “binding of MUC1-CD(1-20) to caspase-8-p18 in the presence of the peptide” value in series [3] is “inhibited”.

Take “MUC1-CD(1-20): GST-MUC1-CD fragment containing just amino acids 1-20 of MUC1-CD (CQCRRKNYGQLDIFPARDTY; cysteine pairing not given here; also: GST fusion)”: the “binding to caspase-8” value in series [4] is “able to interact with caspase-8”.

Regarding “MUC1-CD(1-45): GST-MUC1-CD deletion mutant, amino acids 1-45 of MUC1-CD (CQCRRKNYGQLDIFPARDTYHPMSEYPTYHTHGRYVPPSSTDRSP; cysteine pairing not given here; also: GST fusion)”, the “binding to FADD” value in series [5] is on record as “not”.

Take “MUC1-CD: 72 amino acid cytoplasmic domain of full-length human MUC1, purified as His- or GST-tagged protein”: the “interaction between FADD and caspase-8 (1-183)” value in series [6] is “progressive decrease”. For the same substance, the “binding to caspase-8” value in series [4] is on record as “binds to caspase-8”. Further, the “binding to FADD” value in series [5] is “interact directly”.

Take “YEKVSAGNGGSSLSYTNPAVAATSANL (also: GST fusion; listed as Homo sapiens) [MUC1-CD(46-72), GST-MUC1-CD deletion mutant, amino acids 46-72 of MUC1-CD]”: the “binding to FADD” value in series [5] is listed as “found to bind to FADD”.

Take “caspase-8-p18-B: His-tagged fragment B of caspase-8-p18, amino acids 270-322 of human caspase-8 (KLHSIRDRNGTHLDAGALTTTFEELHFEIKPHHDCTVEQIYEILKIYQLMDHS; also: His tag; listed as Homo sapiens)”: the “binding to MUC1-CD” value in series [7] is listed as “binds”.
